Measurements from US6455593B1, “Method of dynamic retardation of cell cycle kinetics to potentiate cell damage” (priority 1995, dated 2002).
Where two headings read alike, the source gives them in different places.

What was measured:
[1] = tested on: human promonocytic lymphoma cells (U937); assay: Microculture indicator system (MIS), MTT growth inhibition assay with bivariate serial dilutions; type: cell-based
In short: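 U937 human promonocytic lymphoma cells were tested in flat-bottom 96-well plates. Two agents were each diluted two-fold by serial mixing, then combined into bivariate dilution series before about 1×10^5 cells per well were added in RPMI 1640 with 10% Nurserum and antibiotics, 100 μl per well. Plates were incubated at 37° C. Thirty μl of 0.5% MTT was then added for 3 hr. Formazan was dissolved overnight with 120 μl of 10 % SDS/0.01 N HCl and absorbance was read at 570 nm against a cell-free blank.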

U937 cells = assay: DNA gel electrophoresis for DNA fragmentation (apoptosis); type: cell-based, human
Protocol: Samples of the U937 cells were exposed to a series of concentrations of dThd for 24 hr. Their DNA was isolated by lysis of cell samples in TE buffer containing TRIS 10 mM, EDTA 10 mM, SDS 0.5% and proteinase K 200 μg/ml at […] for 2 h. The proteins were precipitated in a IM solution of NaCl and centrifuged at 2,500×g for 30 min at […] DNAse free RNase (25 μg/ml) was added to the supernatant and incubated for 30 min at 37° C. Spectrophotometric quantitation of the DNA in the supernatant was quantitated by absorbance spectrophotometry at 260 nm. Volumes adjusted to contain equal amounts of DNA were mixed with a loading buffer of 40% (w/v) sucrose, 0.1M EDTA pH 8.0, 0.5% (w/v) sodium lauryl sulphate and 0.05% (w/v) bromophenol blue. […] Separated bands of DNA were stained with ethidium bromide and photographed in UV light (Fotodyne Inc.). […] The lowest molecular weight (about 180 bp) was determined with a standard 123 bp ladder from Sigma Chemical Co. (Cat. #D5042). The result shown is a classical “DNA ladder,” characteristic of the fragmentation of DNA macromolecules in apoptosis. See Tomei, supra; Obeid, supra; Gold, supra.

[2] = Homo sapiens, U-937, 4 h, U937, dThd […] 4 H, Cisplatin 0, read-out: MTT % inhibition, dThd only

Cc1cn([C@H]2C[C@H](O)[C@@H](CO)O2)c(=O)[nH]c1=O [dThd, deoxythymidine]
inhibition at 10 µM ([1]; Homo sapiens, U-937, 4 h, U937, dThd 0.01 mM 4 H, no Cisplatin, read-out: MTT % inhibition, dThd only): 7% | inhibition at 10 µM ([1]; Homo sapiens, U-937, 4 h, U937, dThd 0.01 mM (column 8, lowest) 4 H, no Cisplatin, read-out: MTT % inhibition, dThd only): 4% | inhibition at 20 µM ([1]; Homo sapiens, U-937, 4 h, U937, dThd 0.02 mM 4 H, no Cisplatin, read-out: MTT % inhibition, dThd only): 12% | inhibition at 50 µM ([1]; Homo sapiens, U-937, 4 h, U937, dThd 0.05 mM 4 H, no Cisplatin, read-out: MTT % inhibition, dThd only): 19% | inhibition at 90 µM ([1]; Homo sapiens, U-937, 4 h, U937, dThd 0.09 mM 4 H, Cisplatin 0, read-out: MTT % inhibition, dThd only): 22% | inhibition at 3000 µM ([1]; Homo sapiens, U-937, 4 h, U937, dThd 3.00 mM 4 H, Cisplatin 0, read-out: MTT % inhibition, dThd only): 56% | inhibition at 190 µM [1, 2]: 29% | inhibition at 380 µM [1, 2]: 32% | inhibition at 760 µM [1, 2]: 40% | inhibition at 1500 µM [1, 2]: 48% | inhibition at 10 µM ([1]; Homo sapiens, U-937, U937, dThd 0.01 mM (c20) for 0 H (added with STSP), STSP for 18 H, total 18 H, STSP nM: 100,50,25,12.6,6.25,3.13, r28 dThd alone, read-out: Growth inhibition (MTT), dThd for 0 H, dThd 0.01 mM (ninth dilution)): 4% | inhibition at 10 µM ([1]; Homo sapiens, U-937, U937, dThd 0.01 mM (c20) for 4 H, STSP for 14 H, total 18 H, STSP nM: 100,50,25,12.5,6.25,3.125, r14 dThd alone, read-out: Growth inhibition (MTT), dThd 0.01 mM (ninth dilution)): -2% | inhibition at 10 µM ([1]; Homo sapiens, U-937, U937, dThd 0.01 mM (c22, last dilution) for 0 H (added with STSP), STSP for 18 H, total 18 H, STSP nM: 100,50,25,12.6,6.25,3.13, r28 dThd alone, read-out: Growth inhibition (MTT), dThd for 0 H, dThd 0.01 mM (tenth, last dilution)): 3% | inhibition at 10 µM ([1]; Homo sapiens, U-937, U937, dThd 0.01 mM (c22, last two-fold dilution) for 4 H, STSP for 14 H, total 18 H, STSP nM: 100,50,25,12.5,6.25,3.125, r14 dThd alone, read-out: Growth inhibition (MTT), dThd 0.01 mM (tenth, last dilution)): -7% | inhibition at 20 µM ([1]; Homo sapiens, U-937, U937, dThd 0.02 mM for 0 H (added with STSP), STSP for 18 H, total 18 H, STSP nM: 100,50,25,12.6,6.25,3.13, r28 dThd alone, read-out: Growth inhibition (MTT), dThd for 0 H, dThd 0.02 mM): 6% | inhibition at 20 µM ([1]; Homo sapiens, U-937, U937, dThd 0.02 mM for 4 H, STSP for 14 H, total 18 H, STSP nM: 100,50,25,12.5,6.25,3.125, r14 dThd alone, read-out: Growth inhibition (MTT), dThd 0.02 mM): 11% | inhibition at 50 µM ([1]; Homo sapiens, U-937, U937, dThd 0.05 mM for 4 H, STSP for 14 H, total 18 H, STSP nM: 100,50,25,12.5,6.25,3.125, r14 dThd alone, read-out: Growth inhibition (MTT), dThd 0.05 mM): 10% | inhibition at 60 µM ([1]; Homo sapiens, U-937, U937, dThd 0.06 mM for 0 H (added with STSP), STSP for 18 H, total 18 H, STSP nM: 100,50,25,12.6,6.25,3.13, r28 dThd alone, read-out: Growth inhibition (MTT), dThd for 0 H, dThd 0.06 mM): 10% | inhibition at 90 µM ([1]; Homo sapiens, U-937, U937, dThd 0.09 mM for 0 H (added with STSP), STSP for 18 H, total 18 H, STSP nM: 100,50,25,12.6,6.25,3.13, r28 dThd alone, read-out: Growth inhibition (MTT), dThd for 0 H, dThd 0.09 mM): 12% | inhibition at 90 µM ([1]; Homo sapiens, U-937, U937, dThd 0.09 mM for 4 H, STSP for 14 H, total 18 H, STSP nM: 100,50,25,12.5,6.25,3.125, r14 dThd alone, read-out: Growth inhibition (MTT), dThd 0.09 mM): 14% | inhibition at 3000 µM ([1]; Homo sapiens, U-937, U937, dThd 3.00 mM for 0 H (added with STSP), STSP for 18 H, total 18 H, STSP nM: 100,50,25,12.6,6.25,3.13, r28 dThd alone, read-out: Growth inhibition (MTT), dThd for 0 H, dThd 3.00 mM): 38% | inhibition at 3000 µM ([1]; Homo sapiens, U-937, U937, dThd 3.00 mM for 4 H, STSP for 14 H, total 18 H, STSP nM: 100,50,25,12.5,6.25,3.125, r14 dThd alone, read-out: Growth inhibition (MTT), dThd 3.00 mM): 50% | inhibition at 190 µM ([1]; Homo sapiens, U-937, read-out: Growth inhibition (MTT), dThd […], U937, dThd […] for 4 H, STSP for 14 H, total 18 H, STSP nM: 100,50,25,12.5,6.25,3.125, r14 dThd alone, read-out: Growth inhibition (MTT), dThd 0.19 mM): 18% | inhibition at 380 µM ([1]; Homo sapiens, U-937, read-out: Growth inhibition (MTT), dThd […], U937, dThd […] for 4 H, STSP for 14 H, total 18 H, STSP nM: 100,50,25,12.5,6.25,3.125, r14 dThd alone, read-out: Growth inhibition (MTT), dThd 0.38 mM): 23% | inhibition at 750 µM ([1]; Homo sapiens, U-937, read-out: Growth inhibition (MTT), dThd […], U937, dThd […] for 4 H, STSP for 14 H, total 18 H, STSP nM: 100,50,25,12.5,6.25,3.125, r14 dThd alone, read-out: Growth inhibition (MTT), dThd 0.75 mM): 34% | inhibition at 1500 µM ([1]; Homo sapiens, U-937, read-out: Growth inhibition (MTT), dThd […], U937, dThd […] for 4 H, STSP for 14 H, total 18 H, STSP nM: 100,50,25,12.5,6.25,3.125, r14 dThd alone, read-out: Growth inhibition (MTT), dThd 1.5 mM): 41% | inhibition at 190 µM ([1]; Homo sapiens, U-937, read-out: Growth inhibition (MTT), dThd for 0 H, dThd […], U937, dThd […] for 0 H (added with STSP), STSP for 18 H, total 18 H, STSP nM: 100,50,25,12.6,6.25,3.13, r28 dThd alone, read-out: Growth inhibition (MTT), dThd for 0 H, dThd 0.19 mM): 15% | inhibition at 380 µM ([1]; Homo sapiens, U-937, read-out: Growth inhibition (MTT), dThd for 0 H, dThd […], U937, dThd […] for 0 H (added with STSP), STSP for 18 H, total 18 H, STSP nM: 100,50,25,12.6,6.25,3.13, r28 dThd alone, read-out: Growth inhibition (MTT), dThd for 0 H, dThd 0.38 mM): 20% | inhibition at 760 µM ([1]; Homo sapiens, U-937, read-out: Growth inhibition (MTT), dThd for 0 H, dThd […], U937, dThd […] for 0 H (added with STSP), STSP for 18 H, total 18 H, STSP nM: 100,50,25,12.6,6.25,3.13, r28 dThd alone, read-out: Growth inhibition (MTT), dThd for 0 H, dThd 0.76 mM): 27% | inhibition at 1500 µM ([1]; Homo sapiens, U-937, read-out: Growth inhibition (MTT), dThd for 0 H, dThd […], U937, dThd […] for 0 H (added with STSP), STSP for 18 H, total 18 H, STSP nM: 100,50,25,12.6,6.25,3.13, r28 dThd alone, read-out: Growth inhibition (MTT), dThd for 0 H, dThd 1.50 mM): 33% | Enhancement of DEET-induced apoptosis as prospective RA ([1]; MTT tests, about 0.05 to 3 mM, preliminary results): no significant enhancement of the DEET-induced apoptosis | dThd concentration at maximum difference between the plots for O and S ([1]; O/S plots of dThd and STSP, FIG. 15, U937): approximately 0.1 mM | RA concentration for STSP potentiation relative to concentration causing cell cycle arrest ([1]; U937): at least one log lower | Combined results ratio (CRR), dThd for 0 H, dThd 0.02 mM ([1]; U937, dThd 0.02 mM for 0 H (added with STSP), STSP for 18 H, total 18 H, STSP nM: 100,50,25,12.6,6.25,3.13, r27 dThd alone): 1.0 | Combined results ratio (CRR), dThd 0.02 mM ([1]; U937, dThd 0.02 mM for 4 H, STSP for 14 H, total 18 H, STSP nM: 100,50,25,12.5,6.25,3.125, r13 dThd alone): 1.0 | Combined results ratio (CRR), dThd 0.05 mM ([1]; U937, dThd 0.05 mM for 4 H, STSP for 14 H, total 18 H, STSP nM: 100,50,25,12.5,6.25,3.125, r13 dThd alone): 1.0 | Combined results ratio (CRR), dThd for 0 H, dThd 0.06 mM ([1]; U937, dThd 0.06 mM for 0 H (added with STSP), STSP for 18 H, total 18 H, STSP nM: 100,50,25,12.6,6.25,3.13, r27 dThd alone): 1.0 | Combined results ratio (CRR), dThd for 0 H, dThd 0.09 mM ([1]; U937, dThd 0.09 mM for 0 H (added with STSP), STSP for 18 H, total 18 H, STSP nM: 100,50,25,12.6,6.25,3.13, r27 dThd alone): 1.0 | Combined results ratio (CRR), dThd 0.09 mM ([1]; U937, dThd 0.09 mM for 4 H, STSP for 14 H, total 18 H, STSP nM: 100,50,25,12.5,6.25,3.125, r13 dThd alone): 1.0 | Combined results ratio (CRR), dThd for 0 H, dThd 3.00 mM ([1]; U937, dThd 3.00 mM for 0 H (added with STSP), STSP for 18 H, total 18 H, STSP nM: 100,50,25,12.6,6.25,3.13, r27 dThd alone): 1.0 | Combined results ratio (CRR), dThd 3.00 mM ([1]; U937, dThd 3.00 mM for 4 H, STSP for 14 H, total 18 H, STSP nM: 100,50,25,12.5,6.25,3.125, r13 dThd alone): 1.0 | Combined results ratio (CRR), dThd for 0 H, dThd […] ([1]; U937, dThd […] for 0 H (added with STSP), STSP for 18 H, total 18 H, STSP nM: 100,50,25,12.6,6.25,3.13, r27 dThd alone): 1.0 | Combined results ratio (CRR), dThd […] ([1]; U937, dThd […] for 4 H, STSP for 14 H, total 18 H, STSP nM: 100,50,25,12.5,6.25,3.125, r13 dThd alone): 1.0 | combined results ratio, dThd only (baseline line) ([1]; U937, dThd alone, every dThd concentration 3.00-0.01 mM): 1.0 | DNA fragmentation (U937 cells; 3 mM dThd, cell cycle arrest): pronounced DNA fragmentation | dThd concentration giving fragmentation of DNA (U937 cells; U937, 24 hr, FIG. 8): > 0.5 mM
